# Columns and labels:
# [1] = tested on: balloon-injured site of the abdominal aorta blood vessel; assay: PDT treatment in rabbit model with arterial injury (balloon catheter), pathological study (Example 1); assay type: in vivo; conditions: 2.5 mg/kg i.v., laser 664 nm, 50 or 100 J/cm^2, optical fiber in inflated 2F balloon catheter
# Description: Mono-L-aspartylchlorin e6 tetrasodium salt (NPe6) was intravenously administered at a dose of 2.5 mg/kg to a rabbit weighing about 4 kg. A commercially available 2F balloon catheter was immediately then inserted through the femoral artery into the abdominal aorta of rabbit. Thereafter, there are repeated operations of drawing out from the blood vessel the balloon catheter with the inflated balloon, inserting the balloon catheter again into the blood vessel, and drawing out the balloon catheter with the inflated balloon, whereby a rabbit model with an arterial injury was produced. This method for producing the rabbit model having the arterial injury at the blood vessel inner wall was in accordance with the method of Hsiang et al. (see Ann. Vasc. Surg., Vol.9, p.80-86, 1995). At the end of 3 hours after the administration of NPe6, an optical fiber for irradiation of laser (made of an acrylic polymer filament having an external diameter of 0.5 mm and provided with the emitter part of 15mm in length) was inserted into the hollow hole of the 2F balloon catheter which had been inserted in and kept remained at the balloon-injured site of the abdominal aorta blood vessel. The balloon of the catheter was then inflated. Laser light of 664 nm wavelength was passed into and transmitted through the optical fiber to make the laser light to irradiate the abdominal artery at the balloon-injured site, and thereby to carry out the PDT treatment of said site at a laser fluence of 50 or 100 J/cm^2. The laser (of the wavelength of 664 nm) used was emitted from a laser-generating source of semi-conductor type known for PDT. At the respective ends of four days, two weeks and four weeks after the above PDT treatment so made, the site having received the PDT treatment was pathologically studied.
# [2] = tested on: intimal thickening induced at the balloon-intervented and injured site of blood vessel; assay: Suppressive effect of PDT treatment on intimal thickening in rabbit model with arterial injury, image analysis of neo-intima and tunica media areas (Example 2); assay type: in vivo; conditions: 2.5 mg/kg i.v., laser 664 nm 3 hours after administration, two weeks after PDT; for Inhibition rate (%): versus untreated group
# Description: Mono-L-aspartylchlorin e6 tetrasodium salt was intravenously administered at a dose of 2.5 mg/kg to three rabbits each weighing about 4 kg. […] The neo-intima (9) had newly been produced from the inner side of the tunica media (8) due to the injury as induced by the balloon-intervention. At the end of three hours after the administration of mono-L-aspartylchlorin e6 tetrasodium salt, a device comprising an optical fiber for the irradiation of laser was inserted in the blood vessel of rabbit having the intimal thickening, to arrive at the balloon-injured site of the blood vessel. In order to estimate in comparison the achievable suppressive effects of the PDT treatments against the vascular restenosis, the above test procedures were conducted with employing two different types of the laser-irradiating devices comprising the optical fiber for the irradiation of laser, a first one type of which two different devices was such a laser-irradiating device that comprised an optical fiber as integrated with a balloon catheter and that is shown in Figure 1 of the appended drawing. The other type of the laser-irradiating device employed was comprising simply the conventional type of cylindrical optical fiber. In the tests, either one of these two different types of the laser-irradiating devices containing an optical fiber was inserted into the abdominal aorta under test. Under roentgenoscopy, an X-ray-shielding marker which had been provided in the laser-irradiating optical fiber so inserted was observed as a guide. This guide was used so that the position of the optical fiber device as inserted could be adjusted so as to be located in a position optimal to make the laser to irradiate selectively just the balloon-injured site of the abdominal aorta under test. Then, the irradiation of the laser through said optical fiber was carried out at a laser fluence of 50 or 100 J/cm^2 by means of a semiconductor generator for generating the laser of a wavelength of 664 nm. […] From the photographies of showing the traverse cross-section of histopathologically stained test specimens as collected from the above PDT-treated site of the blood vessel, the area of the tunica media and the area of the neo-intima of the test specimens of the blood vessel under test were measured by an image analyzer. The ratio of the area of the tunica media to the area of the neo-intima of the blood vessel specimens was calculated. […]
# [3] = conventional type of cylindrical optical fiber device, 100 J/cm^2
# [4] = optical fiber device integrated with the balloon catheter, 50 J/cm^2
compound,measurement,setting,value
"C=Cc1c(C)c2cc3nc(c(CC(=O)N[C@@H](CC(=O)[O-])C(=O)[O-])c4[nH]c(cc5nc(cc1[nH]2)C(C)=C5CC)c(C)c4C(=O)[O-])[C@@H](CCC(=O)[O-])[C@@H]3C.[Na+].[Na+].[Na+].[Na+] [NPe6, Mono-L-aspartylchlorin e6 tetrasodium salt]",injuries in the regions of the blood vessel participating in the entire construction of the blood vessel (pathological findings),[1]; 2 and 4 weeks after PDT,no injuries were developed
same,intimal thickening as produced by the vascular neo-intima formed at the PDT-treated site (pathological findings),[1]; 2 and 4 weeks after PDT,inhibited
same,cells of the tunica media of the blood vessel at the PDT-treated site (pathological findings),[1]; four days after PDT,destroyed in a broad region of ranging from the inner wall side towards the outer wall side of the blood vessel
same,Ratio of area of neointima to area of tunica media in blood vessel,[2]; [3],0.87±0.37
same,Inhibition rate (%),[2]; [3],28.7%
same,Ratio of area of neointima to area of tunica media in blood vessel,[2]; [4],0.68±0.21
same,Inhibition rate (%),[2]; [4],44.3%
